Experiments:
HIV-1 RT Y181C = biological target: T1, HIV-1 RT Y181C (Human immunodeficiency virus type 1 group M subtype B, UniProt P03367, Y780C); test: Reverse Transcriptase (RT) Assay, Y181C mutant enzyme; assay type: biochemical, Human Immunodeficiency Virus (HIV-1); details: 1 µM compound, read-out: Reverse Transciptase Assay % inhibition (1 µM) Y181C
T1 construct: Utilization of mutant RT eraymes (Y181C and Y181L, prepared by site-directed mutagenesis); made in house
Source text: Among the enzymes for which Human Immunodeficiency Virus (HIV-1) encodes is a reverse transcriptase (1), so-named because it transcribes a DNA copy from an RNA template. This activity can be quantitatively measured in a cell-free enzyme assay, which has been previously described (2), and is based upon the observation that reverse transcriptase is able to use a synthetic template [poly r(C) primed with oligo d(G)] to transcribe a radio-labelled, acid-precipitable DNA strand utilizing ^3H-dGTP as a substrate. The assay described below utilizes the wild type (WT) enzyme, which is the predominant form of the enzyme observed in patients infected with HIV-1. Utilization of mutant RT eraymes (Y181C and Y181L, prepared by site-directed mutagenesis in which the tyrosine residue at codon 181 has been replaced by a cysteine or a leucine residue, respectively) and analogous assay conditions allows compounds to be evaluated for their effectiveness at inhibiting these mutant enzymes.
The 2X concentrated stock reaction mixture is aliquoted and stored at -20°C. The mixture is stable and thawed for use in each assay. This enzyme assay has been adapted to a 96 well microtiter plate system, and has been previously described (6). Tris buffer (50 mM, pH 7.4), vehicle (solvent diluted to match the compound dilution), or compounds in vehicle are dispensed into 96-well microtiter plates (10µL/well; 3 wells/ compound). The HIV-1 RT enzyme is thawed, diluted in 50mM Tris pH 7.4 so that fifteen µL of diluted enzyme contain 0.001 Unit (one unit is that amount of enzyme to transform 1 micromole of substrate per minute at 25°C), and fifteen µL are dispensed per well. Twenty µL of 0.12-0.5M EDTA are added to the first three wells of the microtiter plate. EDTA chelates the Mg^++ present and prevents reverse transcription. This group serves as background polymerization which is subtracted from all other groups. Twenty-five ul of the 2X reaction mixture are added to all wells and the assay is allowed to incubate at room temperature for 60 minutes. The assay is terminated by precipitating the DNA in each well with 50µL of 10% trichloracetic acid (TCA) (10% w/v) in sodium pyrophosphate (1% w/v). The microtiter plate is incubated for 15 minutes at 4°C and the precipitate is fixed onto #30 glass fiber paper (Schleicher & Schuell) using a Skatron semi-automatic harvester. The filters are then washed with additional TCA (5%) containing sodium pyrophosphate (1%), rinsed with aqueous ethanol (70%), dried, and transferred to scintillation vials (6). Each vial receives 2 mL of scintillation cocktail and is counted in a Beckman beta counter. The calculation for percent inhibition is as follows: % inhibition =(CPM Mean Test Value - CPM Mean Control Value X100)/(CPM Mean Control Value) [formula]

[1] = tested on: HTLV-IIIB strain of HIV-1; test: Syncytia (human T-cell culture) assay; assay type: cell-based; details: Human immunodeficiency virus 1, IIIB, 96 h; c8166 cells; read four days after virus challenge
Protocol: In order to confirm that compounds which are active in the RT Assay also have the ability to inhibit HIV replication in a living system, compounds according to the invention were also tested in the human T-Cell Culture (Syncytia) Assay described below.
Formation of syncytia is a feature of in vitro cultures of CD4+ T-cells infected with HIV-1. In this assay, T-cells are treated with a putative replication inhibiting compound and then infected with HIV-1. After incubation, the culture is checked for the formation of syncytia. The absence or reduction in the number of syncytia is used as a measure of the test compound's ability to inhibit HIV replication.
The target cells, designated c8166, are a subclone of human lymphoma cells of T-cell origin and are established at an initial density of 5x10^4 per 100 ul in RPMI 1640 (+ 10% fetal bovine serum) culture medium in 96 well flat bottom plates. A selected amount of test compound, dissolved in DMSO, is included. After 24 hours, 50-100 TCID50's (the dose that results in induced effect in 50% of test cultures) of the HTLV-IIIB strain of HIV-1 (2) are inoculated into each culture. Control cultures receive compound or virus only. Four days after virus challenge, cultures are visually examined for the frequency and distribution of virus-induced giant cell syncytia. The percent inhibition by the test compound is determined by comparison with control values. Confirmation of the presence or absence of virus replication is accomplished by harvesting the cell free culture fluids from all experimental groups to determine the presence or absence of infectious progeny through the induction of syncytia formation in secondary human T-cell cultures after 3 days.

| SMILES | inhibition at 1 µM (HIV-1 RT Y181C) | IC50 [1] |
| --- | --- | --- |
| CCN1c2ncccc2C(=O)N(C)c2ccc(-c3cn[nH]c3)nc21 [Example 1, 5,11-Dihydro-11-ethyl-5-methyl-2-(4-pyrazolyl)-6H-dipyrido[3,2-b:2'3'-e][1,4]diazepin-6-one] | 96% | 40 nM |
| CN1C(=O)c2cccnc2N(C2CC2)c2nc(-c3cn[nH]c3)ccc21 [Example 6, 5,11-Dihydro-5-methyl-11-c-propyl-2-(4-pyrazolyl)-6H-dipyrido[3,2-b:2',3'-e][1,4]diazepin-6-one] | 87% | 10 nM |
| CCN1c2ncccc2C(=O)N(C)c2ccc(-c3cc[nH]c3)nc21 [Example 12, 5,11-Dihydro-11-ethyl-5-methyl-2-(3-pyrrolyl)-6H-dipyrido[3,2-b:2',3'-e][1,4]diazepin-6-one] | 91% | 40 nM |
| CN1C(=O)c2cccnc2N(C2CC2)c2nc(-c3cc[nH]c3)ccc21 [Example 25, 11-Cyclopropyl-5,11-dihydro-5-methyl-2-(3-pyrrolyl)-6H-dipyrido[3,2-b:2',3'-e][1,4]diazepin-6-one] | 86% | 80000 nM |

Reference: patent EP0745083B1, “2-HETEROARYL-5,11-DIHYDRO-6H-DIPYRIDO [3,2-b:2',3'-e][1,4]DIAZEPINES AND THEIR USE IN THE PREVENTION OR TREATMENT OF HIV INFECTION” (BOEHRINGER INGELHEIM PHARMACEUTICALS INC., priority 1994, dated 1995)
